How the values were obtained:
[1] = system: HCV replication in Ava5 cells; conditions: cited from earlier work
[2] = system: HCV replication in OR6 cells; conditions: cited from earlier work
[3] = system: hepatitis C virus (HCV); conditions: hepatitis C patients; cited from earlier work
[4] = system: blood HCV-RNA level (hepatitis C virus); experiment: Interferon therapy (interferon and ribavirin) with or without EPA-E in hepatitis C patients, by blood triglyceride level (Example 3); assay type: in vivo, human; conditions: hepatitis C complicated with hypertriglyceridemia; interferon therapy along with oral 1800 to 2700 mg/day EPA-E
Excerpt: The determination of the response rate to interferon therapy needs a follow-up survey for six months or longer after the completion of the therapy, that is to say, is time-consuming. The response rate can be determined earlier by using a leading index as a surrogate. For instance, the response rate to interferon therapy is expected to be increased if the reduction in viral load (reduction in blood HCV-RNA level) is significant three days after the start of the therapy. Accordingly, the reduction in viral load three days after the start of interferon therapy can be used as a leading index for the determination of the response rate to the interferon therapy. The reduction in viral load is preferably not less than 2.0 as the difference between the common logarithm value of the blood HCV-RNA level before the start of interferon therapy and the common logarithm value of the blood HCV-RNA level three days after the start of interferon therapy.
On the patients having hepatitis C complicated with hypertriglyceridemia, the interferon therapy was then conducted along with the oral administration of 1800 to 2700 mg/day of EPA-E.
As a result, the reduction in viral load was 2.375 on average, that is to say, EPA-E improved the effectiveness of the interferon therapy in the patients having hepatitis C complicated with hypertriglyceridemia. […]

[5] = system: hepatitis C virus (HCV); experiment: EPA-E in interferon non-responders having hepatitis C complicated with hepatic steatosis (Example 1); assay type: in vivo, human; conditions: 2700 mg/day oral, third and sixth month, no interferon
Description: To the patients from whom interferon was withdrawn for about one month after they were determined to be unresponsive to interferon therapy, 2700 mg/day of EPA-E is orally administered for three months or longer. During the testing period, it is forbidden to administer any new drug considered to effect change in hepatic function. Also forbidden is administration of interferon. If the alanine aminotransferase (ALT) activity and/or the HCV-RNA level is quantified (the latter by a COBAS AMPLICOR MONITOR assay) before EPA-E administration, as well as on the third month and the sixth month of EPA-E administration, and the values as obtained are compared with those before administration, it is confirmed that the ALT activity and/or the HCV-RNA level is reduced by not less than 10%.
Instead of the ALT activity, improvement in liver tissue finding, reduction in lipid droplet, or reduction in proportion of 18:1 fatty acids (oleic acid in particular) among liver triglyceride fractions may be confirmed.

[6] = system: hepatitis C virus (HCV); experiment: Response rate to repeated interferon therapy after EPA-E in non-responders or relapsers (Example 2-1); assay type: in vivo, human; conditions: 1800 to 2700 mg/day oral for three months before repeated interferon therapy; six months after completion of interferon therapy
Description: Employing those hepatitis C patients as targets who were determined as non-responders or relapsers after interferon therapy, it is confirmed that the response rate to the interferon therapy is improved in re-treatment cases by the administration of EPA-E.
The patients to be tested are divided into two groups, namely, EPA-E administered group and EPA-E non-administered group. To the EPA-E administered group, 1800 to 2700 mg/day of EPA-E is orally administered for three months after the patients were determined as non-responders or relapsers with respect to the interferon therapy. To the EPA-E non-administered group, none of EPA and derivatives thereof is administered during the testing period. Subsequently, the interferon therapy is conducted again on both groups. The dose, dosage interval, dosage period, and the like of interferon are specified as appropriate to the condition of a patient, side effects of the interferon, and so forth. The ratio at which the patients became negative for the HCV-RNA level is calculated six months after the completion of interferon therapy.
It is confirmed that the ratio as calculated is higher in the EPA-E administered group than the EPA-E non-administered group.

[7] = system: hepatitis C virus (HCV); experiment: EPA-E before and during interferon therapy in hepatitis C with or without hepatic steatosis (Example 2-2); assay type: in vivo, human; conditions: 1800 to 2700 mg/day oral at least one month before and during interferon therapy
Description: The patients to be tested are divided into two groups, EPA-E administered group and EPA-E non-administered group. In addition, a fatty liver group and a non-fatty liver group are set up in each of the EPA-E administered group and the EPA-E non-administered group by investigating the degree of hepatic fatty change through diagnostic imaging or hepatobiopsy. To the EPA-E administered group, 1800 to 2700 mg/day of EPA-E is orally administered for at least one month before interferon therapy. To the EPA-E non-administered group, none of EPA and derivatives thereof is administered during the testing period. Subsequently, interferon therapy is conducted on each group for three months or longer. The dose, dosage interval, dosage period, and the like of interferon are specified as appropriate to the condition of a patient, side effects of the interferon, and so forth. After the termination of interferon administration, the alanine aminotransferase (ALT) activity and the HCV-RNA level are measured (the latter by a COBAS AMPLICOR MONITOR assay), and a hepatohistological test is conducted. It should be noted that EPA-E is also administered to the EPA-E group during the administration of interferon.

[8] = system: blood HCV-RNA level (hepatitis C virus); experiment: Time to negativity for the blood HCV-RNA level on repeated interferon therapy after EPA-E (Example 2-3); assay type: in vivo, human; conditions: 1800 to 2700 mg/day oral at least two weeks before repeated interferon therapy
Description: Employing those hepatitis C patients as targets who were determined as non-responders or relapsers after interferon therapy, it is confirmed that the time at which the patients become negative for the blood HCV-RNA level is allowed to be earlier by the administration of EPA-E.
The patients to be tested are divided into two groups, EPA-E administered group and EPA-E non-administered group. To the EPA-E administered group, 1800 to 2700 mg/day of EPA-E is orally administered for at least two weeks after the patients were determined as non-responders or relapsers with respect to the interferon therapy. To the EPA-E non-administered group, none of EPA and derivatives thereof is administered during the testing period. Subsequently, the interferon therapy is conducted again on both groups. The dose, dosage interval, dosage period, and the like of interferon are specified as appropriate to the condition of a patient, side effects of the interferon, and so forth. The blood HCV-RNA level is measured in course of the administration of interferon. Data on the time after the start of interferon administration at which the patients became negative for the blood HCV-RNA level are collected to comparison between the two groups.
For instance, the ratio of the patients becoming negative for the blood HCV-RNA level within 12 weeks after the start of interferon administration is increased.

[9] = healthy male adult, cited from earlier work
[10] = in vivo; cited from earlier work
[11] = in one week of continuous oral administration

## CCCCC/C=C\C/C=C\C/C=C\C/C=C\CCCC(=O)O [arachidonic acid]
[1]
  HCV replication: inhibited HCV replication
[2]
  HCV replication-inhibiting effect independent of cytotoxicity: only linoleic acid had the HCV replication-inhibiting effect

## CC/C=C\C/C=C\C/C=C\C/C=C\C/C=C\C/C=C\CCC(=O)O [DHA, docosahexaenoic acid]
[2]
  HCV replication-inhibiting effect independent of cytotoxicity: only linoleic acid had the HCV replication-inhibiting effect

## IFN-α
[3]
  HCV elimination rate: about 30%

## CCCCC/C=C\C/C=C\CCCCCCCC(=O)O [linoleic acid]
[2]
  HCV replication-inhibiting effect independent of cytotoxicity: only linoleic acid had the HCV replication-inhibiting effect

## CC/C=C\C/C=C\C/C=C\C/C=C\C/C=C\CCCC(=O)OCC [EPA-E, ethyl icosapentate]
[4]
  reduction in viral load (difference between common logarithm values of the blood HCV-RNA level), on average: 2.375
[5]; COBAS AMPLICOR MONITOR assay
  reduction of HCV-RNA level compared with before administration: not less than 10%
[5]
  reduction of ALT activity compared with before administration: not less than 10%
[6]
  ratio at which patients became negative for the HCV-RNA level, versus EPA-E non-administered group: higher
[7]; ALT, HCV-RNA, hepatohistological test
  effect on hepatitis C complicated with hepatic steatosis versus not complicated with hepatic steatosis: greater
[8]
  ratio of patients becoming negative for the blood HCV-RNA level within 12 weeks after start of interferon administration: increased
  time at which patients become negative for the blood HCV-RNA level, versus EPA-E non-administered group: shows a tendency to be earlier
[9]; continuous oral administration
  time at which the plasma EPA level reaches a plateau: one week
[9]; [11]
  plasma EPA/AA (arachidonic acid) ratio: higher than 1.0
  plasma EPA/AA relative to that before administration: about two times

## CC/C=C\C/C=C\C/C=C\C/C=C\C/C=C\CCCC(=O)O [EPA, icosapentaenoic acid]
[7]
  effect of interferon and EPA in combination versus interferon alone on hepatitis C complicated with hepatic steatosis: greater effect
[1]
  HCV replication: inhibited HCV replication
[10]
  anaemia during combination therapy with interferon and ribavirin: can prevent anaemia
[2]
  HCV replication-inhibiting effect independent of cytotoxicity: only linoleic acid had the HCV replication-inhibiting effect

— patent US9006285B2, “Therapeutic agent for hepatitis C” (Mochida Pharmaceutical Co., Ltd., priority 2008, dated 2015)
